In patent US20230181482A1, “LIPIDS FOR DELIVERY OF NUCLEIC ACID SEGMENTS” (AstraZeneca AB, priority 2021, published 2023):

How the values were obtained:
Female BALB/c mice = assay: eGFP expression in the liver at 24 hours after intravenous administration of LNP formulations to mouse (ELISA); assay type: in vivo; details: LNP N/P 3:1, DMPE-PEG2000
From the text: Female BALB/c mice were purchased (SPF (Beijing) Laboratory Animal Technology Co. Ltd.) and on arrival were caged in groups of 4 on corncob bedding, with normal diet and were provided tap drinking water ad libitum that was purified and autoclaved before being offered to the animal. The environment was maintained at a target temperature of […] and relative humidity of 40-80%, with a 12-hour light/dark cycle. Animals were acclimatised to the housing conditions for at least 7 days prior to any experimental procedures and were approximately 6-8 weeks of age at the start of dosing
Animals were assigned to respective groups such that the mean body weights for each treatment groups will be equal. N=4 for each treatment group.
Formulations 1, 3, 4, 5, and 6 from Example 58 were each dosed intravenously: Each mouse was removed from its cage and restrained, and then dosed with a slow IV bolus of a formulation in the lateral tail vein at a dose […] of 0.3 mg/kg.
All animals were sacrificed 24 hours after dosing and flowing blood sampling the liver for the animals dosed by the IV route and the liver and muscle at the dose site for the IM dosed animals were harvested for eGFP analysis by ELISA.
Additional LNP formulations were prepared according to the procedures described in Example 46. These formulations were tested using the same protocol as described herein. The results of eGFP expression in the liver at 24 hours after intravenous administration of the formulations were summarized in Tables 3, 4, 5 and 6 below.

[1] = LNP particle size by dynamic light scattering (Zetasizer Nano ZS); assay type: physicochemical
Procedure: (§1) A solution of eGFP mRNA (purchased from TriLink Biotechnologies) in citrate buffer was prepared by mixing mRNA dissolved in MilliQ-water, 100 mM citrate buffer (pH 3) and MilliQ-water to give a solution of 50 mM citrate. Lipid solution in ethanol (99.5%) was prepared with four different lipid components: ionizable lipid (see Table 1); cholesterol (Sigma-Aldrich); DSPC (distearoyl phosphatidyl choline, Avanti Polar Lipids Inc); and a polymer-conjugated lipid (see Table 1). The ratio of lipids in all experiments was ionizable lipid/cholesterol/DSPC/polymer-conjugated lipid (50/38.5/10/1.5 mol %). The total concentration of lipids in all experiments was 12.5 mM.
(§2) The mRNA and lipid solutions were mixed in a NanoAssemblr (Precision Nanosystems, Vancouver, BC, Canada) microfluidic mixing system at a mixing ratio of Aq:EtOH=3:1 and a constant flow rate of 12 mL/min. The mRNA in citrate buffer solution was prepared such that, at the time of mixing the ratio between the nitrogen atoms on the ionizable lipid and phosphorus atoms (N/P ratio) on the mRNA chain was either 3:1 or 6:1 (see Table 1).
The first 0.2-0.35 mL and the last 0.05-0.1 mL of the LNP suspension prepared were discarded while the rest of the volume was collected as the sample fraction. The size of the mRNA lipid nanoparticles was determined by dynamic light scattering measurements using a Zetasizer Nano ZS from Malvern Instruments Ltd, giving directly the z-average particle diameter. The number-weighted particle size distributions and averages were calculated using a particle refractive index of 1.45.

[2] = mRNA encapsulation efficiency of LNP formulations (Quant-it Ribogreen assay with Triton-X100); assay type: physicochemical
Procedure: as §1, §2
The final mRNA concentration and encapsulation efficiency percentage (% EE) was measured by Quant-it Ribogreen Assay Kit (ThermoFischer Scientific Inc.) using Triton-X100 to disrupt the LNPs. The mRNA encapsulation efficiency was determined according to the following equation: […]

[3] = Table 5, N/P ratio 3:1, DMPE-PEG2000
[4] = Table 6, N/P ratio 3:1, DMPE-PEG2000
[5] = Table 3, N/P ratio 3:1, DMPE-PEG2000
[6] = Table 1, number-average particle diameter, N/P ratio 6:1, DMG-PEG2000
[7] = Table 1, z-average particle diameter, N/P ratio 6:1, DMG-PEG2000
[8] = Table 1, LNP with eGFP mRNA, N/P ratio 6:1, DMG-PEG2000
[9] = Table 1, number-average particle diameter, N/P ratio 3:1, DMPE-PEG2000
[10] = Table 1, z-average particle diameter, N/P ratio 3:1, DMPE-PEG2000
[11] = Table 1, LNP with eGFP mRNA, N/P ratio 3:1, DMPE-PEG2000
[12] = Table 4, N/P ratio 3:1, DMPE-PEG2000

SMILES: CCCCCCCCC(CCCCCCCC)OC(=O)CCCCCCCC(CCCCCCCC(=O)OCCC(C)CCCCCC)NC1CC2(COC2)C1 (stereo not shown) [Compound 42, 1-(heptadecan-9-yl) 17-(3-methylnonyl) 9-((2-oxaspiro[3.3]heptan-6-yl)amino)heptadecanedioate]
- Liver eGFP protein (ng/g tissue) (Female BALB/c mice; Table 5, 0.3 mg/kg): 1868.2 ng/g tissue
- <d>N (nm) [1, 3]: 66 nm
- <d>Z (nm) [1, 3]: 84 nm
- % EE [2, 3]: 94%

SMILES: CCCCCCCCC(CCCCCCCC)OC(=O)CCCCCCCC(CCCCCCCC(=O)OCC1CC1CCCCCC)NCC1CCOC1 (stereo not shown) [Compound 52, 1-(heptadecan-9-yl) 17-((2-hexylcyclopropyl)methyl) 9-(((tetrahydrofuran-3-yl)methyl)amino)heptadecanedioate]
- Liver eGFP protein (ng/g tissue) (Female BALB/c mice; Table 6, 0.3 mg/kg): 4701.7 ng/g tissue
- <d>N (nm) [1, 4]: 55 nm
- <d>Z (nm) [1, 4]: 71 nm
- % EE [2, 4]: 95%

SMILES: CCCCCC(CCCCC)CCOC(=O)CCCCCC(CCCCCC(=O)OCCC(CCCCC)CCCCC)NC1CC2(COC2)C1 [Compound 13, bis(3-pentyloctyl) 7-((2-oxaspiro[3.3]heptan-6-yl)amino)tridecanedioate]
- Liver eGFP protein (ng/g tissue) (Female BALB/c mice; Table 3, 0.3 mg/kg): 8798.8 ng/g tissue
- <d>N (nm) [1, 5]: 49 nm
- <d>Z (nm) [1, 5]: 66 nm
- % EE [2, 5]: 93%

SMILES: CCCCCCCCCCCOC(=O)CCCCCN(CCO)CCCCCCCC(=O)OC(CCCCCCCC)CCCCCCCC [MOD8, heptadecan-9-yl 8-((2-hydroxyethyl)(6-oxo-6-(undecyloxy)hexyl)amino)octanoate, reference compound]
- <d>N (nm) [1, 6]: 49 nm
- <d>Z (nm) [1, 7]: 73 nm
- % EE [2, 8]: 98%

SMILES: CCCCCC(CCCCC)CCOC(=O)CCCCCCCC(CCCCCCCC(=O)OCCC(CCCCC)CCCCC)NCC1CCOCC1 [Compound 4, bis(3-pentyloctyl) 9-(((tetrahydro-2H-pyran-4-yl)methyl)amino)heptadecanedioate]
- <d>N (nm) [1, 9]: 62 nm
- <d>Z (nm) [1, 10]: 81 nm
- % EE [2, 11]: 96%

SMILES: CCCCCCCCC(C)OC(=O)CCCCCCCC(CCCCCCCC(=O)OC(CCCCCCCC)CCCCCCCC)NCC1CCOCC1 (stereo not shown) [Compound 35, 1-(decan-2-yl) 17-(heptadecan-9-yl) 9-(((tetrahydro-2H-pyran-4-yl)methyl)amino)heptadecanedioate]
- Liver eGFP protein (ng/g tissue) (Female BALB/c mice; Table 5, 0.3 mg/kg): 5974.6 ng/g tissue
- <d>N (nm) [1, 3]: 59 nm
- <d>Z (nm) [1, 3]: 77 nm
- % EE [2, 3]: 95%

SMILES: CCCCCCCCC(CC)OC(=O)CCCCCCCC(CCCCCCCC(=O)OC(CCCCCCCC)CCCCCCCC)NCC1CCOC1 (stereo not shown) [Compound 40, 1-(heptadecan-9-yl) 17-(undecan-3-yl) 9-(((tetrahydrofuran-3-yl)methyl)amino)heptadecanedioate]
- Liver eGFP protein (ng/g tissue) (Female BALB/c mice; Table 5, 0.3 mg/kg): 3658.4 ng/g tissue
- <d>N (nm) [1, 3]: 53 nm
- <d>Z (nm) [1, 3]: 70 nm
- % EE [2, 3]: 97%

SMILES: CCCCCC(CCCCC)CCOC(=O)CCCCCCCCC(CCCCCCCCC(=O)OCCC(CCCCC)CCCCC)NC1CC2(COC2)C1 [Compound 14, bis(3-pentyloctyl) 10-((2-oxaspiro[3.3]heptan-6-yl)amino)nonadecanedioate]
- Liver eGFP protein (ng/g tissue) (Female BALB/c mice; Table 3, 0.3 mg/kg): 8056.3 ng/g tissue
- <d>N (nm) [1, 5]: 61 nm
- <d>Z (nm) [1, 5]: 77 nm
- % EE [2, 5]: 95%

SMILES: CCCCCCCCC(CCCCCCCC)OC(=O)CCCCCCC(CCCCCCC(=O)OCCCCCCCC(C)C)NC1CC2(COC2)C1 (stereo not shown) [Compound 26, 1-(heptadecan-9-yl) 15-(8-methylnonyl) 8-((2-oxaspiro[3.3]heptan-6-yl)amino)pentadecanedioate]
- Liver eGFP protein (ng/g tissue) (Female BALB/c mice; Table 4, 0.3 mg/kg): 824.8 ng/g tissue
- <d>N (nm) [1, 12]: 50 nm
- <d>Z (nm) [1, 12]: 75 nm
- % EE [2, 12]: 94%

SMILES: CCCCCCCCC(C)OC(=O)CCCCCCC(CCCCCCC(=O)OC(CCCCCCCC)CCCCCCCC)NC1CC2(COC2)C1 (stereo not shown) [Compound 25, 1-(decan-2-yl) 15-(heptadecan-9-yl) 8-((2-oxaspiro[3.3]heptan-6-yl)amino)pentadecanedioate]
- Liver eGFP protein (ng/g tissue) (Female BALB/c mice; Table 4, 0.3 mg/kg): 15961.7 ng/g tissue
- <d>N (nm) [1, 12]: 50 nm
- <d>Z (nm) [1, 12]: 69 nm
- % EE [2, 12]: 94%

SMILES: CCCCCCCCC(CCCCCCCC)OC(=O)CCCCCCCC(CCCCCCCC(=O)OCCC(C)CCCCCC)NCC1CCOCC1 (stereo not shown) [Compound 43, 1-(heptadecan-9-yl) 17-(3-methylnonyl) 9-(((tetrahydro-2H-pyran-4-yl)methyl)amino)heptadecanedioate]
- Liver eGFP protein (ng/g tissue) (Female BALB/c mice; Table 5, 0.3 mg/kg): 2590.9 ng/g tissue
- <d>N (nm) [1, 3]: 62 nm
- <d>Z (nm) [1, 3]: 79 nm
- % EE [2, 3]: 95%

SMILES: CCCCCCCCC(CCCCCCCC)OC(=O)CCCCCCCC(CCCCCCCC(=O)OCCC(CC)CCCCCC)NC1CC2(COC2)C1 (stereo not shown) [Compound 44, 1-(3-ethylnonyl) 17-(heptadecan-9-yl) 9-((2-oxaspiro[3.3]heptan-6-yl)amino)heptadecanedioate]
- Liver eGFP protein (ng/g tissue) (Female BALB/c mice; Table 5, 0.3 mg/kg): 6582.0 ng/g tissue
- <d>N (nm) [1, 3]: 65 nm
- <d>Z (nm) [1, 3]: 80 nm
- % EE [2, 3]: 97%

SMILES: CCCCCCCCC(CC)OC(=O)CCCCCCCC(CCCCCCCC(=O)OC(CCCCCCCC)CCCCCCCC)NC1CC2(COC2)C1 (stereo not shown) [Compound 38, 1-(heptadecan-9-yl) 17-(undecan-3-yl) 9-((2-oxaspiro[3.3]heptan-6-yl)amino)heptadecanedioate]
- Liver eGFP protein (ng/g tissue) (Female BALB/c mice; Table 5, 0.3 mg/kg): 9730.7 ng/g tissue
- <d>N (nm) [1, 3]: 61 nm
- <d>Z (nm) [1, 3]: 76 nm
- % EE [2, 3]: 97%

SMILES: CCCCCC(CCCCC)CCOC(=O)CCCCCC(CCCCCC(=O)OCCC(CCCCC)CCCCC)NC1CCOCC1 [Compound 45, bis(3-pentyloctyl) 7-((tetrahydro-2H-pyran-4-yl)amino)tridecanedioate]
- Liver eGFP protein (ng/g tissue) (Female BALB/c mice; Table 4, 0.3 mg/kg): 9082.2 ng/g tissue
- <d>N (nm) [1, 12]: 60 nm
- <d>Z (nm) [1, 12]: 75 nm
- % EE [2, 12]: 88%

SMILES: CCCCCCCCC(CCCCCCCC)OC(=O)CCCCCCCC(CCCCCCCC(=O)OC(CC)CCCC)NCC1CCOC1 (stereo not shown) [Compound 47, 1-(heptadecan-9-yl) 17-(heptan-3-yl) 9-(((tetrahydrofuran-3-yl)methyl)amino)heptadecanedioate]
- Liver eGFP protein (ng/g tissue) (Female BALB/c mice; Table 6, 0.3 mg/kg): 13883.6 ng/g tissue
- <d>N (nm) [1, 4]: 62 nm
- <d>Z (nm) [1, 4]: 82 nm
- % EE [2, 4]: 89%

SMILES: CCCCCCCCCOC(=O)CCCCCCCN(CCO)CCCCCCCC(=O)OC(CCCCCCCC)CCCCCCCC [MOD5, heptadecan-9-yl 8-((2-hydroxyethyl)(8-(nonyloxy)-8-oxooctyl)amino)octanoate, reference compound]
- <d>N (nm) [1, 6]: 47 nm
- <d>Z (nm) [1, 7]: 66 nm
- % EE [2, 8]: 98%

SMILES: CCCCCC(CCCCC)CCOC(=O)CCCCCCCC(CCCCCCCC(=O)OCCC(CCCCC)CCCCC)NCC1COC1 [Compound 5, bis(3-pentyloctyl) 9-((oxetan-3-ylmethyl)amino)heptadecanedioate]
- <d>N (nm) [1, 9]: 54 nm
- <d>Z (nm) [1, 10]: 70 nm
- % EE [2, 11]: 99%

SMILES: CCCCCC(CCCCC)CCOC(=O)CCCCCCCC(CCCCCCCC(=O)OCCC(CCCCC)CCCCC)NC1CCOCC1 [Compound 2, bis(3-pentyloctyl) 9-[(oxan-4-yl)amino]heptadecanedioate]
- <d>N (nm) [1, 9]: 58 nm
- <d>Z (nm) [1, 10]: 73 nm
- % EE [2, 11]: 96%

SMILES: CCCCCC(CCCCC)CCOC(=O)CCCCCCCC(CCCCCCCC(=O)OCCC(CCCCC)CCCCC)NCC1CCOC1 (stereo not shown) [Compound 3, bis(3-pentyloctyl) 9-(((tetrahydrofuran-3-yl)methyl)amino)heptadecanedioate]
- <d>N (nm) [1, 9]: 58 nm
- <d>Z (nm) [1, 10]: 79 nm
- % EE [2, 11]: 99%
